Laboratory results published in patent publication US20200360381A1, “COMPOUNDS FOR TREATING DENGUE VIRUS INFECTION AND OTHER VIRAL INFECTIONS” (priority 2017, published 2020).
Several values for one entry are separate records, joined by “and”; a condition that tells them apart may be missing. Equal entries are not always repeated. Where two headings read alike, the source gives them in different places.

Assays:
DENV2 sE2 [1] = molecular target: T1, DENV2 sE2 (Dengue virus type 2, UniProt P14340); test: biochemical; assay type: binding, Dengue virus 2; conditions: for IC50: IC50 (AlphaScreen)
DENV2 = test: Antiviral activity (viral infectivity) assay, single-cycle viral yield; assay type: cell-based, Dengue virus 2; conditions: for IC90: Dengue virus
DENV1, 2, 3, 4; ZIKV = test: Plaque reduction assay (PRNT); assay type: cell-based; conditions: Zika virus, DENV1, read-out: EC50 (PRNT)
Description: DENV1, 2, 3, 4 were tested on BHK-21 cells, and ZIKV was tested on Vero cells. Virus inocula were diluted in EBSS to 2500 pfu/ml as the final concentration, and were pre-incubated with different concentrations of small molecule inhibitors (2% DMSO vol/vol final concentration) for 45 min at 37° C., 5% CO2. The mixture (200 μl, 500 pfu of virus) was then added to cells for 1 hour (37° C., 5% CO2) to allow infection, after which the inoculum was removed, and the cells were washed with 1×PBS to remove unbound virus and compound. Cells were overlaid with carboxylmethylcellulose and incubated at 37° C., 5% CO2 to allow the formation of plaques (4 days for DENV1, 2, 3, 4 and 2-3 days for ZIKV). The cells were fixed and plaques visualized by staining of the cell monolayers with crystal violet Empirical analysis was performed to determine the PRNT50 (EC50 (PRNT)) value, defined as the inhibitor concentration needed to reduce plaque formation by 50%.

[2] = Cytotoxicity assay (CellTiter-Glo); conditions: hamster
Description: (§1) BHK21 cells (MEM with 2% FBS) were incubated with varying concentrations of inhibitor in a 96-well white plate for 24 hours at 37° C. and 5% CO2. CellTiter-Glo (Promega) solution was used to measure viability following the manufacturer's instructions. Luminescence was measured using a Biotek Synergy plate reader. […] The maximum concentration tested was 100 μM.

DENV2 sE2 [3] = molecular target: T1, DENV2 sE2; test: biochemical; assay type: binding, Dengue virus 2
VSV-eGFP = test: microbe, parasite or virus in culture; assay type: cell-based, vesicular stomatitis virus; conditions: for inhibition at 5 µM / inhibition at 10 µM: Vesicular stomatitis virus, 6 h; for inhibition at 5 µM: read-out: VSV 5 μM; for inhibition at 10 µM: read-out: VSV 10 μM
AmpC β-lactamase = AmpC β-lactamase (Escherichia coli, UniProt P00811); test: biochemical
[4] = Dynamic light scattering particle size; assay type: physicochemical; conditions: DLS, 40 μM compound; for Particle size (with Tween 20): with detergent; for Particle size (no Tween): without detergent
in vitro = conditions: hamster
Description: as §1

[5] = Mouse microsomal stability; conditions: mouse microsomes
[6] = concentration that inhibits 50% luminescence signal in the AlphaScreen competition assay, Table 1
[7] = DENV2, concentration that reduces single-cycle viral yield by 10-fold, read-out: IC90 (DENV2 infectivity)
[8] = IC50 (AmpC, Triton), with detergent (0.01% Triton X-100)
[9] = T1/2 (mouse microsome), mouse microsomal stability
[10] = DENV2, read-out: IC90 versus DENV2

AmpC β-lactamase, sequence (P00811 20-377): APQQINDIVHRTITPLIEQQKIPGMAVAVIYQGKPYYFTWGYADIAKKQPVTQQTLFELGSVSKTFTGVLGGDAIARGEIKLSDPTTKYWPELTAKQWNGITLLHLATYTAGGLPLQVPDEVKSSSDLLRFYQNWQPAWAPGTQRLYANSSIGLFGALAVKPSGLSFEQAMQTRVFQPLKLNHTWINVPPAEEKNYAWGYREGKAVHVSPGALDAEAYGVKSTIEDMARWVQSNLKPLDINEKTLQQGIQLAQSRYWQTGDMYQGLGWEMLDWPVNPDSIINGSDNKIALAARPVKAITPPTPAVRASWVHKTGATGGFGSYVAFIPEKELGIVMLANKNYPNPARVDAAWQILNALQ

SMILES | CC50 at 24 h [2] | IC50 (DENV2 sE2 [1]; [6]) | Kd (DENV2 sE2 [3]) | IC90 (DENV2; [7]) | inhibition at 5 µM (VSV-eGFP) | inhibition at 10 µM (VSV-eGFP) | Particle size (with Tween 20) [4] | Particle size (no Tween) [4] | half-life [5, 9] | also measured
CCOc1ccc(CCNC(=O)c2cnn3c(O)cc(C4CCN(C(=O)OC(C)(C)C)CC4)nc23)cc1 [Compound C429-0385] | > 100 µM | – | – | – | – | – | – | – | – | IC50 (DENV2 sE2 [1]; Table 3): 7.6 µM and 5.3 µM; IC90 (DENV2; DENV2, read-out: IC90 (DENV2 infectivity)): ~3 µM; EC50 (DENV1, 2, 3, 4; ZIKV): 0.6 µM
COc1cc(C(=O)NS(=O)(=O)c2ccccc2C)ccc1Cc1cn(C)c2ccc(NC(=O)OC3CCCC3)cc12 [Compound S1633] | – | 3.1 ± 1 µM | 5.2 µM | 7 ± 2.8 µM | 12% | 40% | 9.2 (40 μM) nm | 823 (40 μM) nm | 37.7 min | IC50 (AmpC β-lactamase; IC50 (AmpC), without detergent): 36.6 µM; IC50 (AmpC β-lactamase; [8]): > 100 µM; CC50 at 24 h (in vitro): 50 µM
Cc1nc2c(C(=O)NCC3CCCN(C)C3)cnn2c(O)c1Cc1ccc(F)cc1 (stereo not drawn) [JBJ-16-104] | – | – | – | – | – | – | – | – | – | IC50 (AlphaScreen) (DENV2 sE2 [1]; Table 2): No competition
Cc1ccc(CCNC(=O)c2cnn3c(O)c(Cc4cc(C)ccc4C)c(C)nc23)cc1 [Compound K786-9739] | 81 µM | 3 ± 1.7 µM | 1.3 µM | 3.1 ± 0.1 µM | 35% | 63% | 7.1 (40 μM) nm | 628 (40 μM) nm | 14.9 min | IC90 (DENV2; [10]): 3 µM
CCCc1nn2c(=O)cc(CSc3nc(-c4ccc(C)cc4)nc4cc(=O)[nH]n34)nc2s1 [Compound G199-0398] | 68 µM | 7 ± 3 µM | – | 8.8 ± 0.2 µM | 33% | 59% | 7.2 (40 μM) nm | 268 (40 μM) nm | 70.6 min | inhibition of VSV-eGFP in counter screen (VSV-eGFP): strong inhibition efficiency; half-life ([5]; stability half-life (text, printed Ti)): ~70 min
COc1ccc(Nc2cc(C)c3cc(NC(=O)c4ccc(N(C)C)cc4)ccc3n2)cc1 [Compound C066-4182] | > 50 µM | 1.4 ± 1.1 µM | 2.2 µM | 17 ± 4.5 µM | 5% | 22% | – | – | 5.3 min | –
Cc1nc2c(C(=O)NC3CCN(C)CC3)cnn2c(O)c1Cc1ccc(F)cc1 [JBJ-16-103] | – | – | – | – | – | – | – | – | – | IC50 (AlphaScreen) (DENV2 sE2 [1]; Table 2): No competition
NC(=O)c1cccc(-c2cc(Nc3ccc(OC(F)(F)F)cc3)ncn2)c1 [GNF2, reference compound] | – | – | – | – | – | – | – | – | – | competition of AlphaScreen signal (DENV2 sE2 [1]; GNF2-biotin on donor beads, His6-tagged DENV2 sE2 on acceptor beads): competed away in a dose-dependent fashion
COC(=O)c1ccc(Cl)cc1NC(=O)CSc1ncc(S(=O)(=O)c2ccc(Br)cc2)c(=O)[nH]1 [Compound C200-5340] | > 50 µM | 3 ± 1.1 µM | 7.1 µM | 7.2 ± 3.5 µM | 20% | 51% | 7.5 (40 μM) nm | 966 (40 μM) nm | 4.2 min | inhibition of VSV-eGFP in counter screen (VSV-eGFP): less potency
CN(CC(=O)N(Cc1ccc(C2CCCCC2)cc1)c1ccc(C(=O)O)cc1)S(=O)(=O)c1c(F)c(F)c(F)c(F)c1F [Compound S7337] | 12.7 µM | 4.1 ± 1.8 µM | 1.3 µM | 2.7 ± 1 µM | – | – | 8.2 (40 μM) nm | 144 (40 μM) nm | 3.2 min | IC90 (DENV2; [10]): 3 µM; inhibition of VSV-eGFP in counter screen (VSV-eGFP): less potency; IC50 (AmpC β-lactamase; IC50 (AmpC), without detergent): > 100 µM; IC50 (AmpC β-lactamase; [8]): > 100 µM
Cc1nc2c(C(=O)NCc3cccnc3)cnn2c(O)c1Cc1ccc(F)cc1 [JBJ-16-105] | – | – | – | – | – | – | – | – | – | IC50 (DENV2 sE2 [1]; Table 2): > 10 µM; (Anti-DENV2)% at 3 μM (DENV2; 3 μM): 20%; (Anti-DENV2)% at 10 μM (DENV2; 10 μM): 86%
Cc1nc2c(C(=O)NCc3ccc4c(c3)OCO4)cnn2c(O)c1Cc1ccccc1F [Compound C218-0288] | – | – | – | – | – | – | – | – | – | IC50 (DENV2 sE2 [1]; Table 3): 1.9 µM
Cc1cc(C(C#N)c2ccc(Cl)cc2)c(Cl)cc1NC(=O)c1cc(I)cc(I)c1O (stereo not drawn) [Compound S4105] | – | 0.6 ± 0.2 µM | 0.9 µM | 0.8 ± 0.3 µM | – | – | 13.1 (40 μM) nm | 82 (40 μM) nm | > 120 min | IC90 (DENV2; [10]): 3 µM; VSV 5 μM (VSV-eGFP): 60%; VSV 10 μM (VSV-eGFP): 64%; IC50 (AmpC β-lactamase; IC50 (AmpC), without detergent): 19.5 µM; IC50 (AmpC β-lactamase; [8]): > 100 µM; CC50 at 24 h (in vitro): 50 µM
Oc1ccc(C2NCCc3c2[nH]c2ccc(Cl)cc32)cc1O (stereo not drawn) [Compound C200-9144] | > 50 µM | 2.6 ± 1.3 µM | 1.2 µM | 1.2 ± 0.4 µM | 76% | 77% | 8.3 (40 μM) nm | 1443 (40 μM) nm | 55.6 min | IC90 (DENV2; [10]): 3 µM; inhibition of VSV-eGFP in counter screen (VSV-eGFP): less potency
